From patent US4470926A, “Medicaments containing thymosin alpha 1 fragments and having an immunostimulant action, and fragments of thymosin alpha 1” (priority 1980, dated 1984)
Like-named read-outs stand apart in the source and are kept apart here. Residues, ends and D or L forms follow the SMILES beside them. No end group written: not given here.

Assays:
[1] = test system: human peripheral lymphocytes; format: cell-based; details: for Optimum concentr.: concentration of optimum E-rosette stimulation after α-amanitin block; for Relative number of the E-rosettes (%): after inhibition with α-amanitin
Text: The immunological test methods used were the E-rosette test according to Wara, Ammann et al. (N.Y. Acad. Sci. 249 (1975) 308 and N. Engl. J. Med. 292 (1975) 70) and the method of mixed lymphocyte culture, both methods involving additional inhibition of cellular RNS polymerase by alpha-amanitin. The E-rosette test is based on the fact that the percentage of E-rosette forming cells in peripheral human blood is a measure of the content of fully mature T-cells, which form with sheep's red blood cells characteristic aggregates which can be counted under the microscope.
For the performance of the E-rosette test, peripheral human lymphocytes are isolated by a gradient centrifugation. Their RNS polymerase is blocked by alpha-amanitin. […] This value is taken as 100% in a relative numerical scale, and after the alpha-amanitin blockage it is taken to be 0%; see Table XII.

[2] = test system: human peripheral lymphocytes; format: cell-based; details: for stimulation (+) / inhibition (-) (%) of the mixed lymphocyte culture: 1 μg fragment per ml; for (%) Stimulation of allogenic mixed culture: 1 microgram thymosin α1 per ml
Experimental: The test in mixed lymphocyte cultures is based on the fact that T-cells are made to proliferate by stimulation with allogenic antigens. For the performance of the test, the lymphocytes of donor A ("responder") are incubated with those of donor B ("stimulator") for 4 to 5 days. Then ^3 H-thymidin is added and the rate of proliferation is measured on the basis of the increasing radioactivity of the cell culture due to the installation of the radioactive material. Since both populations A and B might be made to proliferate, resulting in an unclear effect, population B is blocked with mitomycin C in all metabolical activities. This test is routinely used before organ transplants to determine the immunological compatibility of donor and receiver tissues.

[3] = after α-amanitin block (=0%), normal level without any addition = 100%, at optimum concentration
[4] = cell pair AB, culture blocked with 1 μg α-amanitin per ml
[5] = cell pair AB, not blocked with amanitin, culture without addition = 0%
[6] = cell pair BA, culture blocked with 1 μg α-amanitin per ml
[7] = cell pair CD, not blocked with amanitin, culture without addition = 0%
[8] = cell pair DC, not blocked with amanitin, culture without addition = 0%
[9] = cell pair CD, culture blocked with 1 μg α-amanitin per ml
[10] = cell pair DC, culture blocked with 1 μg α-amanitin per ml
[11] = cell pair BA, not blocked with amanitin, culture without addition = 0%

## C[C@H](NC(=O)[C@@H](N)CCC(=O)O)C(=O)N[C@@H](CCC(=O)O)C(=O)N[C@@H](CC(N)=O)C(=O)O [V] (H-EAEN-OH)
[1]
  activity in the E-rosette test (in words): activity in the E-rosette test only at a relatively high dosage
  Optimum concentr.: 113 µM
[1]; [3]
  E-rosette number (%): 42%
[2]
  action in the mixed lymphocyte culture (in words): very considerable stimulation of T-cell proliferation
[2]; [4]
  stimulation (+) / inhibition (-) (%) of the mixed lymphocyte culture: -47%
[2]; [5]
  stimulation (+) / inhibition (-) (%) of the mixed lymphocyte culture: +223%
[2]; [6]
  stimulation (+) / inhibition (-) (%) of the mixed lymphocyte culture: -94%
[2]; [7]
  stimulation (+) / inhibition (-) (%) of the mixed lymphocyte culture: +45%
[2]; [8]
  stimulation (+) / inhibition (-) (%) of the mixed lymphocyte culture: +37%

## Ac-SDAAVDTSSEIT [IX]
[1]
  activity in the E-rosette test (in words): more strongly stimulated
  Optimum concentr.: 4 µM
[1]; [3]
  E-rosette number (%): 40%
[2]
  action in the mixed lymphocyte culture (in words): surprisingly pronounced inhibiting action
[2]; [4]
  stimulation (+) / inhibition (-) (%) of the mixed lymphocyte culture: -30%
[2]; [5]
  stimulation (+) / inhibition (-) (%) of the mixed lymphocyte culture: -74%
[2]; [6]
  stimulation (+) / inhibition (-) (%) of the mixed lymphocyte culture: -78%
[2]; [9]
  stimulation (+) / inhibition (-) (%) of the mixed lymphocyte culture: +63%
[2]; [7]
  stimulation (+) / inhibition (-) (%) of the mixed lymphocyte culture: -63%
[2]; [10]
  stimulation (+) / inhibition (-) (%) of the mixed lymphocyte culture: +60%
[2]; [8]
  stimulation (+) / inhibition (-) (%) of the mixed lymphocyte culture: -77%

## KDAAVD [Ia]
[1]
  activity in the E-rosette test (in words): especially active
  Optimum concentr.: 16 µM
[1]; [3]
  E-rosette number (%): 93%
[2]
  action in the mixed lymphocyte culture (in words): surprisingly pronounced inhibiting action
[2]; [4]
  stimulation (+) / inhibition (-) (%) of the mixed lymphocyte culture: -10%
[2]; [5]
  stimulation (+) / inhibition (-) (%) of the mixed lymphocyte culture: -8%
[2]; [11]
  stimulation (+) / inhibition (-) (%) of the mixed lymphocyte culture: -15%
[2]; [9]
  stimulation (+) / inhibition (-) (%) of the mixed lymphocyte culture: -53%
[2]; [7]
  stimulation (+) / inhibition (-) (%) of the mixed lymphocyte culture: -73%
[2]; [10]
  stimulation (+) / inhibition (-) (%) of the mixed lymphocyte culture: -7%
[2]; [8]
  stimulation (+) / inhibition (-) (%) of the mixed lymphocyte culture: -31%

## KEVVE [IV]
[1]
  activity in the E-rosette test (in words): activity in the E-rosette test only at a relatively high dosage
  Optimum concentr.: 83 µM
[1]; [3]
  E-rosette number (%): 45%
[2]
  action in the mixed lymphocyte culture (in words): very considerable stimulation of T-cell proliferation
[2]; [4]
  stimulation (+) / inhibition (-) (%) of the mixed lymphocyte culture: -87%
[2]; [5]
  stimulation (+) / inhibition (-) (%) of the mixed lymphocyte culture: -53%
[2]; [6]
  stimulation (+) / inhibition (-) (%) of the mixed lymphocyte culture: -97%
[2]; [9]
  stimulation (+) / inhibition (-) (%) of the mixed lymphocyte culture: +35%
[2]; [7]
  stimulation (+) / inhibition (-) (%) of the mixed lymphocyte culture: +37%
[2]; [10]
  stimulation (+) / inhibition (-) (%) of the mixed lymphocyte culture: +100%
[2]; [8]
  stimulation (+) / inhibition (-) (%) of the mixed lymphocyte culture: +2%

## KEVVEEAEN [VI]
[1]; [3]
  E-rosette number (%): 16%
[1]
  Optimum concentr.: 10 µM
[2]; [4]
  stimulation (+) / inhibition (-) (%) of the mixed lymphocyte culture: +279%
[2]; [5]
  stimulation (+) / inhibition (-) (%) of the mixed lymphocyte culture: +153%
[2]; [6]
  stimulation (+) / inhibition (-) (%) of the mixed lymphocyte culture: -96%
[2]; [9]
  stimulation (+) / inhibition (-) (%) of the mixed lymphocyte culture: +83%
[2]; [7]
  stimulation (+) / inhibition (-) (%) of the mixed lymphocyte culture: +57%
[2]; [10]
  stimulation (+) / inhibition (-) (%) of the mixed lymphocyte culture: +160%

## Synthetic thymosin α1: parent substance, totally synthetic thymosin α1, 28 amino acids, analytically pure (SDAAVDTSSEITTKDLKEKKEVVEEAEN; ends and bridges not checked; UniProt P06454 2-29, looked up) [reference compound]
[1]; 0.25 μg per culture
  Relative number of the E-rosettes (%): 39%
[1]; 0.50 μg per culture
  Relative number of the E-rosettes (%): 100%
[1]; 1.00 μg per culture
  Relative number of the E-rosettes (%): 64%
[1]; 2.50 μg per culture
  Relative number of the E-rosettes (%): 57%
[1]; 5.00 μg per culture
  Relative number of the E-rosettes (%): 33%
[1]; [3]
  E-rosette number (%): 100%
[1]
  Optimum concentr.: 1.6 µM
[2]; cell pair AB, (a) culture not inhibited, without addition = 0%
  (%) Stimulation of allogenic mixed culture: +20%
[2]; cell pair AB, (b) culture inhibited with 1 microgram amanitin per ml
  (%) Stimulation of allogenic mixed culture: +86%
[2]; cell pair AD, (a) culture not inhibited
  (%) Stimulation of allogenic mixed culture: +4%
[2]; cell pair AD, (b) culture inhibited with 1 microgram amanitin per ml
  (%) Stimulation of allogenic mixed culture: +37%
[2]; cell pair BA, (a) culture not inhibited
  (%) Stimulation of allogenic mixed culture: +27%
[2]; cell pair BA, (b) culture inhibited with 1 microgram amanitin per ml
  (%) Stimulation of allogenic mixed culture: +47%
[2]; cell pair BD, (a) culture not inhibited
  (%) Stimulation of allogenic mixed culture: +45%
[2]; cell pair BD, (b) culture inhibited with 1 microgram amanitin per ml
  (%) Stimulation of allogenic mixed culture: +51%
[2]; cell pair DA, (a) culture not inhibited
  (%) Stimulation of allogenic mixed culture: +44%
[2]; cell pair DB, (a) culture not inhibited
  (%) Stimulation of allogenic mixed culture: +27%
[2]; cell pair DB, (b) culture inhibited with 1 microgram amanitin per ml
  (%) Stimulation of allogenic mixed culture: +1550%

## TKDLKEKKEVVEEAEN [VII]
[1]
  E-rosette number (%): 41%
  activity in the E-rosette test (in words): more strongly stimulated
  Optimum concentr.: 6 µM

## TSSEIT [II]
[1]; [3]
  E-rosette number (%): 29%
[1]
  Optimum concentr.: 80 µM
[2]; [4]
  stimulation (+) / inhibition (-) (%) of the mixed lymphocyte culture: -11%
[2]; [6]
  stimulation (+) / inhibition (-) (%) of the mixed lymphocyte culture: -80%
[2]; [11]
  stimulation (+) / inhibition (-) (%) of the mixed lymphocyte culture: -18%
[2]; [9]
  stimulation (+) / inhibition (-) (%) of the mixed lymphocyte culture: -98%
[2]; [7]
  stimulation (+) / inhibition (-) (%) of the mixed lymphocyte culture: -53%
[2]; [10]
  stimulation (+) / inhibition (-) (%) of the mixed lymphocyte culture: +20%
[2]; [8]
  stimulation (+) / inhibition (-) (%) of the mixed lymphocyte culture: +30%
